Experimental data as given in patent US20210108191A1, “Methods of Production of Biologically Active Lasso Peptides” (The Board of Trustees of the University of Illinois, priority 2017, published 2021).
Bridges are numbered along the chain shown (N, C = ends). Where no end group is shown, it is not given here.

Test system: several pathogenic bacteria
Assay: activity against pathogenic bacteria
Type: cell-based
Source text: RODEO can be used to assist in identifying lasso peptide gene clusters (FIG. 2). […] Several new lasso peptides have been characterized. (FIG. 3B-C). […] RODEO provides a roadmap for the discovery of new RiPPs and lasso peptide biosynthetic enzymology.

## LP2006: rare disulfide-containing, class IV lasso peptide (SEQ ID NO:6) from Nocardiopsis alba (GRPNWGFENDWSCVRVC; disulfide 13-17 (inferred); also: lasso topology, ring places not given here)
  activity against pathogenic bacteria: active against several pathogenic bacteria
